Columns and labels:
Pneumocystis carinii [1] = assay type: in vivo, human
Text: The initial diagnosis of P. carinii pneumonia was based on finding the organism in induced sputum or bronchoalveolar lavage specimens.
Treatment was as described in Example 3.
Chest radiographs and arterial blood gas tensions were obtained as clinically indicated.

[2] = Respirgard or UltraVent, any dose or duration
[3] = Example 2: aerosol particle size, Mercer cascade impactor; assay type: physicochemical
Text: A compressed oxygen (5-7 L/min at 345 kPa, 50 psi) powered nebulizer produces the aerosol and one-way valves provide for entrainment of room air in patients whose minute ventilation is high, act as a baffle to decrease particle size, and direct expired air to a filter which removes the remaining particles of drug thereby preventing environmental contamination.
Particles were sized with a 7 stage Mercer cascade impactor (Intox Products, Albuquerque, N. Mex.). The gas supply was 6 L/min, the sample stream was not dried, and the impactor flow rates were 0.5 L/min. […] Results from the average of three determinations at each location were expressed as mass median aerodynamic diameter±geometric standard deviation (MMAD±GSD). Raabe, J Aerosol Sci (1971) 2:289-303.

Pneumocystis carinii [4] = assay: Example 8: randomized clinical trial, prevention of PCP; assay type: in vivo, human
[5] = all strata, eligible, PCP within 60 days, 30 mg
[6] = all strata, eligible, confirmed PCP within 60 days, 30 mg
[7] = prior PCP strata, eligible, PCP within 60 days, 30 mg
[8] = prior PCP strata, eligible, PCP within 60 days, 150 mg
[9] = prior PCP strata, eligible, PCP within 60 days, 300 mg
[10] = prior PCP strata, eligible, confirmed PCP within 60 days, 30 mg
[11] = prior PCP strata, eligible, confirmed PCP within 60 days, 150 mg
[12] = prior PCP strata, eligible, confirmed PCP within 60 days, 300 mg

Structure (SMILES): N=C(N)c1ccc(OCCCCCOc2ccc(C(=N)N)cc2)cc1 [pentamidine, p,p'-(pentamethylenedioxy)dibenzamidine]
- hypoxia, fever, dyspnea (Pneumocystis carinii [1]; 10 patients): none of the patients were hypoxic or febrile, all had improvement in dyspnea
- completion of therapy (Pneumocystis carinii [1]; 10 patients, 4 to 17 days): All patients successfully completed therapy
- chest radiographs (Pneumocystis carinii [1]; current or subsequent): roentrographic improvement of infiltrates
- dose remaining in the nebulizer after inhalation [2]: approximately one third
- mild cough controlled by metaproterenol, patients (aerosol): 9 patients
- severe coughing, patients (aerosol, all smokers): 3 patients
- adverse systemic reactions (renal, liver, hematologic, hypoglycemia, hypotension) (in vivo): No adverse systemic reactions
- air-way obstruction (in vivo): Neither clinical nor spirometric evidence of air-way obstruction occurred
- clinical bronchospasm (in vivo): not seen
- coughing with therapy, patients (in vivo): Twelve
- Toxicity Req Change of Therapy (n = 15): 0(0) n (%)
- mass of particles larger than 4 μm ([3]; at mouth-piece): less than 5%
- particle size MMAD ([3]; at mouth-piece (point B), ± GSD 1.88): 1.42±1.88 μm
- mass of particles larger than 4 μm ([3]; distal to nebulizer): greater than 20%
- effectiveness vs 300 mg (Pneumocystis carinii [4]; 150 mg arm, compared with 30 mg arm, not statistically significant vs 300 mg): consistently less effective than 300 mg
- time to PCP occurrence, Kaplan-Meier (Pneumocystis carinii [4]; 150 mg vs 30 mg): superior to the 30 mg arm but less so than the 300 mg arm
- PCP episodes vs other arms (Pneumocystis carinii [4]; 300 mg arm): fewest PCP episodes
- time to PCP occurrence, Kaplan-Meier (Pneumocystis carinii [4]; 300 mg every 4 weeks vs 30 mg every 2 weeks): consistently superior
- hazard of PCP, Cox model (Pneumocystis carinii [4]; 300 mg group): significantly lower hazard of PCP
- PCP episodes documented during study (Pneumocystis carinii [4]; all arms): One hundred-one
- PCP events not histologically confirmed (Pneumocystis carinii [4]; all arms): Twenty-five
- completed the study without reaching a study endpoint (Pneumocystis carinii [4]; all arms): 26%
- deaths due to PCP (Pneumocystis carinii [4]; all arms): Nineteen
- p, log rank 30 mg vs. 300 mg (Pneumocystis carinii [4]; all strata, eligible, PCP within 60 days): .004
- No PCP (Pneumocystis carinii [4]; [5]): 89
- PCP (Pneumocystis carinii [4]; [5]): 28
- PCP (Pneumocystis carinii [4]; all strata, eligible, PCP within 60 days, 150 mg): 18
- PCP (Pneumocystis carinii [4]; all strata, eligible, PCP within 60 days, 300 mg): 16
- p, log rank 30 mg vs. 300 mg (Pneumocystis carinii [4]; all strata, eligible, confirmed PCP within 60 days): .0008
- No PCP (Pneumocystis carinii [4]; [6]): 95
- PCP (Pneumocystis carinii [4]; [6]): 22
- PCP (Pneumocystis carinii [4]; all strata, eligible, confirmed PCP within 60 days, 150 mg): 16
- PCP (Pneumocystis carinii [4]; all strata, eligible, confirmed PCP within 60 days, 300 mg): 8
- p, log rank 30 mg vs. 300 mg (Pneumocystis carinii [4]; all strata, intention to treat): .02
- PCP (Pneumocystis carinii [4]; all strata, intention to treat, all PCP, 30 mg): 41
- PCP (Pneumocystis carinii [4]; all strata, intention to treat, all PCP, 150 mg): 32
- PCP (Pneumocystis carinii [4]; all strata, intention to treat, all PCP, 300 mg): 28
- No PCP (Pneumocystis carinii [4]; all strata, intention to treat, 30 mg): 94
- Cox relative hazard of 30 mg, on study drugs events (Pneumocystis carinii [4]; for 150 mg): 1.7
- Cox relative hazard of 30 mg, on study drugs events (Pneumocystis carinii [4]; for 300 mg): 3.9
- all cause mortality between three treatment arms (Pneumocystis carinii [4]; human, in vivo): did not significantly differ
- participants who developed PCP (Pneumocystis carinii [4]; initial CD4 counts greater than 200, no prior PCP): 5.1%
- participants who developed PCP (Pneumocystis carinii [4]; initial CD4 counts less than 200, no prior PCP): 13%
- p, log rank 30 mg vs. 300 mg (Pneumocystis carinii [4]; prior PCP strata, eligible, PCP within 60 days): .006
- No PCP (Pneumocystis carinii [4]; [7]): 42
- PCP (Pneumocystis carinii [4]; [7]): 25
- No PCP (Pneumocystis carinii [4]; [8]): 51
- PCP (Pneumocystis carinii [4]; [8]): 16
- No PCP (Pneumocystis carinii [4]; [9]): 60
- PCP (Pneumocystis carinii [4]; [9]): 14
- p, log rank 30 mg vs. 300 mg (Pneumocystis carinii [4]; prior PCP strata, eligible, confirmed PCP within 60 days): .002
- No PCP (Pneumocystis carinii [4]; [10]): 47
- PCP (Pneumocystis carinii [4]; [10]): 20
- No PCP (Pneumocystis carinii [4]; [11]): 53
- PCP (Pneumocystis carinii [4]; [11]): 14
- No PCP (Pneumocystis carinii [4]; [12]): 66
- PCP (Pneumocystis carinii [4]; [12]): 8
- p, log rank 30 mg vs. 300 mg (Pneumocystis carinii [4]; prior PCP strata, intention to treat): .02
- PCP (Pneumocystis carinii [4]; prior PCP strata, intention to treat, all PCP, 30 mg): 33
- PCP (Pneumocystis carinii [4]; prior PCP strata, intention to treat, all PCP, 150 mg): 24
- PCP (Pneumocystis carinii [4]; prior PCP strata, intention to treat, all PCP, 300 mg): 21
- No PCP (Pneumocystis carinii [4]; prior PCP strata, intention to treat, 30 mg): 46
- No PCP (Pneumocystis carinii [4]; prior PCP strata, intention to treat, 150 mg): 54
- No PCP (Pneumocystis carinii [4]; prior PCP strata, intention to treat, 300 mg): 59
- PCP episodes (Pneumocystis carinii [4]; prior PCP stratum, all arms): Seventy-eight
- median time to PCP relapse (Pneumocystis carinii [4]; prophylaxis started within 3 months of prior episode): 240 days
- hazard of PCP (Pneumocystis carinii [4]; therapy started within 3 months vs later): less than half the hazard of PCP

— patent US5366726A (priority 1992, dated 1994)
